Data from patent publication US11866416B2, “Streptococcus mutans glucosyl transferase inhibitors for dental caries therapy” (UAB Research Foundation, priority 2018, dated 2024).
In brackets after ≈: the same amount, converted by molar mass. Read-outs that look alike come from different tables or passages of the source. Marks after values point to notes of the source that are not given here.

Tests used:
S. mutans biofilm = S. mutans biofilm formation and inhibition assay (96-well plates, crystal violet); assay type: cell-based, Streptococcus mutans
Method: Biofilm assays using 96-well flat-bottom polystyrene microtiter plates were performed to evaluate S. mutans biofilm formation at various conditions as described (Liu et al. (2011) Antimicrobial Agents and Chemotherapy 55, 2679; Zhang et al. (2015) International Journal of Antimicrobial Agents 46, 174), the disclosures of which are incorporated herein by reference in their entirety). Each assay was replicated three times. Compounds that inhibited biofilm formation at minimum concentration (MBIC) were determined by serial dilutions.
S. mutans biofilm formation and inhibition assays. […] Each assay was replicated three times. Minimum biofilm inhibitory concentration (MBIC) of compounds was determined by serial dilutions.
S. mutans biofilm formation and inhibition assays. Biofilm assays using 96-well flat-bottom polystyrene microtiter plates were performed to evaluate S. mutans biofilm formation at various conditions as described. Each assay was replicated […]. Compounds that inhibited 50% biofilm formation were determined by serial dilutions.
S. mutans biofilm formation and inhibition assays. A well-established protocol to study S. mutans biofilm formation in 96-well flat-bottom polystyrene microtiter plates was used, in triplicate (Mattos-Graner, R. O.; Napimoga, M. H.; Fukushima, K.; Duncan, M. J.; Smith, D. J., Comparative analysis of Gtf isozyme production and diversity in isolates of Streptococcus mutans with different biofilm growth phenotypes. Journal of clinical microbiology 2004, 42 (10), 4586-4592). The stock solutions were made up in 100% DMSO, and final concentration of DMSO used in the assays was 1%. Minimum biofilm inhibitory concentration (MBIC) of compounds was determined by serial dilutions.

S. mutans Gtfs = test: Gtf zymographic assay with SDS-PAGE; assay type: biochemical, Streptococcus mutans; conditions: for % Inhibition of GTFs at 10 μM: S. mutans GTF zymogram assay, NI = no inhibition up to 10 μM
Method: A well-established zymographic assay was used to determine enzymatic activity of Gtfs (Mattos-Graner et al. (2004) J. Clin. Microbiol. 42, […]). In brief, overnight S. mutans UA159 cultures were diluted 1:100 in fresh 5 mL THB with 50 μL of selective compounds at a series of concentrations. Treated bacteria were grown to OD470 of 1.0, and spun down by centrifugation at 4° C., and culture supernatants were collected and filtered through a 0.22-μm-pore-size filter membrane to remove residual bacterial cells and dialyzed at 4° C. against 0.02 M sodium phosphate buffer (pH 6.8), with 10 μM phenylmethylsulfonyl fluoride (PMSF), followed by a second dialysis against 0.2 mM sodium phosphate containing 10 μM PMSF. After dialysis, 4 mL of samples were concentrated to 40 μL by 100K Amicon Ultra-4 centrifugal filter (Merck Millipore Ltd.). For electrophoresis and zymographic analysis, 10 μL of each concentrated culture supernatant was applied to 8% SDS-PAGE in duplicate. One gel was used for protein staining with Coomassie blue dye, while the other one was subjected to zymographic assay as described (Mattos-Graner et al. (2004) J. Clin. Microbiol. 42, […]). The resultant white opaque glucan bands were visualized against a black background.
Inhibition of the activity of Gtfs determined by zymographic assays. Well established zymographic assay was used to determine enzymatic activity of Gtfs. In brief, overnight S. mutans UA159 cultures were diluted 1:100 in fresh 5 mL THB. Bacteria were grown to OD470 of 1.0, and spun down by centrifugation at 4° C. and culture supernatants were collected and filtered through a 0.22-μm-pore-size filter membrane to remove residual bacterial cells and dialyzed at 4° C. against 0.02 M sodium phosphate buffer (pH 6.8), with 10 μM phenylmethylsulfonyl fluoride (PMSF), followed by a second dialysis against 0.2 mM sodium phosphate containing 10 μM PMSF. After dialysis, 4 mL of samples were concentrated to 40 μL by 100K Amicon Ultra-4 centrifugal filter (Merk Millipore Ltd.). For electrophoresis and zymographic analysis, 10 μL of each concentrated culture supernatant was applied to 8% SDS-PAGE in duplicate. One gel was used for protein staining with Coomassie blue dye, while the other one was subjected to zymographic assay. For zymogram analysis, following electrophoretic separation, gels were washed twice for 15 min each with renaturing buffer containing 2.5% Triton X-100. Gels were then incubated for 18 h at 37° C. with 0.2 M sodium phosphate buffer (pH 6.5) containing 0.2% dextran T70, 5% sucrose, and varying concentrations of the small molecule inhibitors. The reactions were stopped by washing gels with distilled water at 4° C. for 10 min, and digital images of the resultant white opaque glucan bands were visualized against a black background and captured using a digital camera.
Inhibition of the activity of Gtfs determined by zymographic assays. A well-established zymographic assay was used to determine enzymatic activity of Gtfs (Mattos-Graner, R. O., Napimoga, M. H., Fukushima, K., Duncan, M. J., Smith, D. J., J Clin Microbiol, 2004, 42, 4586). In brief, overnight S. mutans UA159 cultures were diluted 1:100 in fresh 5 mL THB with 50 μL of selective compounds at a series of concentrations. Treated bacteria were grown to OD470 of 1.0, and spun down by centrifugation at 4° C., and culture supernatants were collected and filtered through a 0.22-μm-pore-size filter membrane to remove residual bacterial cells and dialyzed at 4° C. against 0.02 M sodium phosphate buffer (pH 6.8), with 10 μM phenylmethylsulfonyl fluoride (PMSF), followed by a second dialysis against 0.2 mM sodium phosphate containing 10 μM PMSF. After dialysis, 4 mL of samples were concentrated to 40 μL by 100K Amicon Ultra-4 centrifugal filter (Merk Millipore Ltd.). For electrophoresis and zymographic analysis, 10 μL of each concentrated culture supernatant was applied to 8% SDS-PAGE in duplicate. […]

S. mutans = test: microbe, parasite or virus in culture; assay type: cell-based, Streptococcus mutans; conditions: for MIC50 / IC50: Streptococcus mutans; for MIC50 / Growth Inhibition MIC50: >300 = no inhibition up to 300 μM; for MIC50: read-out: Growth Inhibition MIC50; for IC50: Table 7, synthesized analogs of compound 9, read-out: Growth IC50; for SI (selectivity index): Table 7, growth IC50 value divided by biofilm IC50 value
Method: Cell viability of S. mutans, S. gordonii, S. sanguinis, Aggregatibacter actinomycetemcomitans and Actinomyces. […] The number of colony-forming units (CFU) per milliliter of each sample treated with selected compounds at different concentrations was enumerated after incubation for 24 h at 37° C. and compared to the values obtained from the DMSO control group. Overnight broth cultures were transferred by 1:50 dilutions into fresh THB medium and were allowed to grow until mid-exponential phase (OD470 nm 0.6) before transfer to 96-well plates containing desired concentration of the compound. After 16 h incubation, bacterial growth was measured at OD470, and normalized to the DMSO control (100%).
Cell viability of S. mutans and commensal S. gordonii and S. sanguinis. Effects of lead small molecules on cell viability were examined. The number of colony-forming units (CFU) per milliliter for each compound at different concentrations was determined after incubation for 24 h at 37° C. and compared to the values obtained from the DMSO control group.
Cell viability of S. mutans and commensal S. gordonii and S. sanguinis. […] DMSO served as a control group and provided a relative comparison for the number of colony-forming units (CFU) per milliliter for each compound at different concentrations was determined after incubation for 24 h at 37° C. The final concentration of DMSO used in the assays was 1%.

[1] = Streptococcus mutans, Table 1, >500 = no inhibition up to 500 μM, read-out: Biofilm Inhibition IC50
[2] = Streptococcus mutans, Table 2, read-out: Biofilm Inhibition IC50
[3] = Streptococcus mutans, Table 5, >500 = no inhibition up to 500 μM, read-out: Biofilm Inhibition IC50
[4] = Streptococcus mutans, Table 7, synthesized analogs of compound 9, read-out: Biofilm IC50
[5] = Streptococcus mutans, Table 3, read-out: Biofilm Inhibition IC50
[6] = Table 3, NI = no inhibition up to 400 μM

IC50 (S. mutans biofilm; [2]) [µM] | MIC50 (S. mutans; Table 2) [µM] | IC50 (S. mutans biofilm; [5]) [µM] | MIC50 (S. mutans; [6]) [µM] | SMILES | further results
 |  |  |  | NC(=O)c1ccccc1NC(=O)c1cc2cc(N)ccc2s1 [Compound 3M] | IC50 (S. mutans biofilm; [1]): 10.2 µM; IC50 (S. mutans biofilm; [3]): 10.2 µM; % Inhibition of GTFs at 10 μM (S. mutans Gtfs): 42.2%; Growth Inhibition MIC50 (S. mutans; Table 2): >300^b μM
 |  |  |  | O=C(/C=C/c1cc(O)c(O)cc1O)c1ccccc1O [Compound 18c, (E/Z)-1-(2-hydroxyphenyl)-3-(2,4,5-trihydroxyphenyl)prop-2-en-1-one] | IC50 (S. mutans biofilm; [4]): 224 ± 23 µM; production of Gtfs, protein level on SDS-PAGE (S. mutans Gtfs; 50 μM added to cultures): largest inhibition; selectivity (index / fold) for biofilm over growth (S. mutans): 1.5; IC50 (S. mutans): 323 ± 36 µM; SI (selectivity index) (S. mutans): 1.5
 |  |  |  | O=C(/C=C/c1cc(O)c(O)cc1O)c1ccc(O)cc1 [Compound 18d, (E)-1-(4-hydroxyphenyl)-3-(2,4,5-trihydroxyphenyl)prop-2-en-1-one] | IC50 (S. mutans biofilm; [4]): 76 µM; Gtf enzyme inhibitory activity, glucan bands in zymogram (S. mutans Gtfs; 50 μM added to cultures): some weak inhibition of the GtfC band; IC50 (S. mutans): 376 ± 6 µM; SI (selectivity index) (S. mutans): 4.9
 |  |  |  | C(=C\c1ccccc1)/c1ccccc1 [E-stilbene, reference compound] | glucan production in zymogram assay (S. mutans Gtfs; stilbenes, versus DMSO control): no glucan inhibition
180 | > 300 |  |  | O=C(O)c1ccc(NC(=O)c2cc3ccccc3s2)cc1 [SN-I-272VH] | 
102 | > 300 |  |  | NC(=O)c1ccccc1C(=O)Nc1cnc2ccccc2c1 [SN-I-285] | 
250 | > 300 |  |  | [N-]=[N+]=Nc1ccc(NC(=O)c2cc3cc([N+](=O)[O-])ccc3s2)cc1 [SN-I-287] | 
212 | > 300 |  |  | [N-]=[N+]=Nc1ccc(C(=O)Nc2ccccc2C(N)=O)cc1 [SN-I-288] | 
57.2 | > 300 |  |  | [N-]=[N+]=Nc1ccc2sc(C(=O)Nc3ccccc3C(N)=O)cc2c1 [SN-II-14] | 
 |  | 101 ± 3 | 231 ± 12 (≈ 79.4 µg/mL) | COc1ccc(/C=C/C(=O)c2ccc(OC)c(OC)c2O)c(OC)c1 [SN-II-24-B6] | 
 |  | 250 ± 16 | 327 ± 24 (≈ 83.8 µg/mL) | O=C(/C=C/c1ccc(O)cc1O)c1ccccc1O [SN-II-32] | 
4.6 | > 300 |  |  | NC(=O)c1cc(NC(=O)c2cc3cc([N+](=O)[O-])ccc3s2)cc(C(N)=O)c1 [SN-II-50] | 
 |  | 65.9 ± 1 | 30 ± 1 (≈ 8.11 µg/mL) | O=c1c(O)c(-c2ccc(O)cc2O)oc2ccccc12 [SN-II-79] | 
 |  | 19.8 ± 2 | 63.1 ± 4 (≈ 18.1 µg/mL) | O=c1c(O)c(-c2cc(O)c(O)cc2O)oc2ccccc12 [SN-II-92] | 
5.5 | 347 (≈ 108 µg/mL) |  |  | COC(=O)c1cccc(NC(=O)c2cc3cc(N)ccc3o2)c1 [SN-II-105] | 
14 | 29 (≈ 16 µg/mL) |  |  | COC(=O)c1cccc(NC(=O)c2cc3cc(N/C(=N\C(=O)OC(C)(C)C)NC(=O)OC(C)(C)C)ccc3o2)c1 [SN-II-106] | 
16.6 | 45.9 (≈ 16.2 µg/mL) |  |  | COC(=O)c1cccc(NC(=O)c2cc3cc(NC(=N)N)ccc3o2)c1 [SN-II-107] | 
 |  | 10.2 ± 2 | 157 ± 13 (≈ 42.3 µg/mL) | O=C1/C(=C/c2cc(O)c(O)cc2O)Oc2ccccc21 [SN-II-110] | 
 |  | 213 ± 7 | > 300 | O=C(/C=C/c1ccc(O)cc1)c1ccccc1O [SN-II-113] | 
 |  | 133 ± 24 | 153 ± 21 (≈ 41 µg/mL) | COc1cc(O)ccc1/C=C1\Oc2ccccc2C1=O [SN-II-115] | 
 |  | 280 ± 35 | 263 ± 14 (≈ 66.8 µg/mL) | O=C1/C(=C/c2ccc(O)c(O)c2)Oc2ccccc21 [SN-II-118] | 

SMILES | IC50 (S. mutans biofilm; [2]) [µM] | MIC50 (S. mutans; Table 2) [µM] | IC50 (S. mutans biofilm; [5]) [µM] | MIC50 (S. mutans; [6]) [µM] | further results
NC(=O)c1ccccc1NC(=O)c1cc2cc([N+](=O)[O-])ccc2s1 [Compound 3A] | 16.7 | > 300 |  |  | IC50 (S. mutans biofilm; [1]): 16.7 µM; IC50 (S. mutans biofilm; [3]): 16.7 µM; % Inhibition of GTFs at 10 μM (S. mutans Gtfs): 30.3%
NC(=O)c1ccccc1NC(=O)c1cnc2ccccc2c1 [Compound 3I] | 15.3 | > 300 |  |  | IC50 (S. mutans biofilm; [1]): 15.3 µM; IC50 (S. mutans biofilm; [3]): 15.3 µM; % Inhibition of GTFs at 10 μM (S. mutans Gtfs): 36.6%
O=C(Nc1ccccc1C(=O)O)c1cc2cc([N+](=O)[O-])ccc2s1 [Compound 3N] | 89.3 | > 300 |  |  | IC50 (S. mutans biofilm; [1]): 89.3 µM; IC50 (S. mutans biofilm; [3]): 89.3 µM; % Inhibition of GTFs at 10 μM (S. mutans Gtfs): 30.1%
COC(=O)c1ccc(NC(=O)c2cc3cc([N+](=O)[O-])ccc3s2)cc1 [Compound 3O] | 9.6 | > 300 |  |  | IC50 (S. mutans biofilm; [1]): 9.6 µM; IC50 (S. mutans biofilm; [3]): 9.6 µM; % Inhibition of GTFs at 10 μM (S. mutans Gtfs): 54.8%
O=C(/C=C/c1ccc(O)cc1O)c1ccc(O)cc1 [SN-II-49C] |  |  | 77 ± 8 | 782 ± 96 (≈ 200 µg/mL) | 
NC(=O)c1cc(NC(=O)c2cc3cc([N+](=O)[O-])ccc3s2)ccc1[N+](=O)[O-] [SN-II-59] | 23.4 | > 300 |  |  | 
Cl.NC(=O)c1ccccc1NC(=O)c1cc2cc(N)ccc2s1 [SN-II-81Cl] | 9.6 |  |  |  | Growth Inhibition MIC50 (S. mutans; Table 2): >300^b μM
NC(=O)c1ccccc1NC(=O)c1cc2cc(N)ccc2s1 [SN-II-81F] |  | > 300 |  |  | IC50 (S. mutans biofilm; Table 2, read-out: Biofilm Inhibition IC50): 56.4 µM
